Strand notation (5' to 3'): a small letter for the sugar, then the base; units joined by * are phosphorothioate-linked, units joined directly phosphodiester-linked; [ ] holds rarer units or linkages, { } end groups; capitals alone tell only the bases. e = 2'-O-(2-methoxyethyl) (MOE); l = locked nucleic acid (LNA); [5mC] = 5-methylcytosine; d = 2'-deoxy (DNA)
Test system: human ABCB11 mRNA
Assay: ASO treatment of primary human hepatocytes (PHH), ABCB11 mRNA by RT-qPCR normalized to B2M
Assay type: cell-based
Conditions: primary human hepatocytes; for ABCB11 mRNA FC (5 μM ASO vs. UNT): normalized to untreated PHHs (UNT); for ABCB11 FC mRNA (5 μM ASO vs. untreated): 5 μM ASO with PO-modifications, normalized to untreated hepatocytes
Description: Primary human hepatocytes (PHH) were thawed using Lonza Human Cryopreserved Hepatocyte Thawing Medium and plated in 96-well collagen-coated plates (5.5-6.0×10^4 cells per well). Four hours later, the media was replaced with sterile-filtered QualGro™ Hepatocyte Culture Medium (BioIVT) containing antibiotic supplement, 0.3 mg/ml Matrigel® matrix (Corning®), and ASO at the desired concentration (e.g., 1.25 μM, 2.5 μM, 5 μM, or 10 μM). After 72 hrs., cells were harvested by aspirating media, washing once with phosphate-buffered saline (PBS), and lysed with 150 μl of Buffer RLT lysis buffer (Qiagen®). Plates were frozen at-80° C. during cell lysis. After thawing, total RNA was isolated using the Qiagen RNEasy kit as instructed by manufacturer. cDNA (random-primed) was synthesized from 10 μl of RNA using the LifeTech High Capacity cDNA Reverse Transcription kit. 2 μl of cDNA was used for reverse transcription-quantitative PCR (RT-qPCR) analyses using standard Taqman” reagents from Applied Biosystems™ to measure ABCB11 and CYP7A1 gene expression. Gene expression data was normalized to the housekeeper gene, beta-2-microglobulin (B2M).
To assess the ability of ASOs targeting ABCB11 regRNAs to modulate the expression of human ABCB11, 195 ASOs targeting the human ABCB11 regRNAs were synthesized. These initial ASOs were screened in PHHs at 5 μM to determine their efficacy in increasing human ABCB11 mRNA using quantitative PCR. This initial screen identified 10 ASOs that induced increased expression of ABCB11 mRNA by more than 1.5-fold (as compared to untreated PHHs).

Substance | ABCB11 mRNA FC (5 μM ASO vs. UNT) | ABCB11 FC mRNA (5 μM ASO vs. untreated)
CO-4491 (antisense eG*eA*eG*eG*eT*eT*eG*eA*e[5mC]*eA*eA*eA*eT*eA*eG*eG*eT*eG*eT*eG) | 1.101 fold change | –
CO-7064 (eT*e[5mC]*eT*eG*lG*eA*eA*eA*lA*eT*eA*eA*lT*eG*e[5mC]*e[5mC]*lT*eT*eT*e[5mC]; antisense) | 1.017 fold change | –
CO-7052 (antisense eT*e[5mC]*eA*e[5mC]*e[5mC]*eT*eT*eG*eG*eT*eT*e[5mC]*e[5mC]*e[5mC]*e[5mC]*e[5mC]*eT*eG*e[5mC]*eT) | 1.046 fold change | –
CO-6996 (antisense eG*eT*eG*lA*eG*dG*d[5mC]*lA*dT*d[5mC]*dA*lG*dG*dT*dA*lA*eG*eT*eT*e[5mC]) | 1.314 fold change | –
CO-7104 (eT*eA*eT*e[5mC]*eT*dG*dG*eA*dA*dA*eA*dT*dA*eA*dT*dG*e[5mC]*d[5mC]*dT*eT*eT*e[5mC]*eT*eA; antisense) | 0.918 fold change | –
CO-11210 (antisense eG*eT*lG*eG*lAeGl[5mC]*eA*lA*eA*l[5mC]*eT*lA*eGlGe[5mC]*lA*e[5mC]*eT*eG) | – | 2.79 fold change
CO-7017 (antisense eA*eA*eG*eT*eG*eA*eG*dG*d[5mC]*dA*dT*d[5mC]*dA*dG*dG*dT*dA*eA*eG*eT*eT*e[5mC]*e[5mC]*eT) | 1.182 fold change | –
CO-4020 (antisense e[5mC]*eA*eT*eG*eT*eA*eT*e[5mC]*eA*eA*eT*e[5mC]*eT*e[5mC]*eT*eT*eA*eG*eA*eG) | 1.201 fold change | –
CO-7034 (antisense eT*eT*eA*eG*eA*eG*eA*e[5mC]*eA*eA*eA*eG*eA*eA*eT*e[5mC]*eG*e[5mC]*eT*eG) | 1.097 fold change | –
CO-4011 (antisense eT*e[5mC]*e[5mC]*eA*eA*e[5mC]*eA*e[5mC]*e[5mC]*eG*eT*eA*e[5mC]*eT*e[5mC]*eA*eT*eT*eT*e[5mC]) | 1.184 fold change | –
CO-3992 (antisense eT*eG*eT*eT*eT*e[5mC]*e[5mC]*eT*eA*eG*eT*eA*e[5mC]*e[5mC]*eA*eA*eG*eA*eA*eT) | 1.388 fold change | –
CO-4523 (antisense eT*e[5mC]*eT*eG*e[5mC]*eA*eA*eA*eT*eT*eA*eA*eG*eA*eA*eG*e[5mC]*eA*e[5mC]eT) | 1.037 fold change | –
CO-7101 (eA*eT*e[5mC]*eT*eG*lG*dA*dA*lA*dA*dT*dA*dA*lT*dG*d[5mC]*l[5mC]*eT*eT*eT*e[5mC]*eT; antisense) | 1.165 fold change | –
CO-11233 (antisense eG*eTlG*eGeA*lGe[5mC]*eAlA*eAe[5mC]*lTeA*eGlG*e[5mC]eA*l[5mC]eT*eG) | – | 1.60 fold change
CO-4021 (antisense eG*eT*e[5mC]*eT*eT*e[5mC]*eT*eT*eT*eA*eT*eA*eG*e[5mC]*eA*eA*eT*eG*e[5mC]*eT) | 1.301 fold change | –
CO-7110 (eT*eA*e[5mC]*eA*eT*eT*eT*dA*dG*dA*dG*dA*d[5mC]*dA*dA*dA*dG*eA*eA*eT*e[5mC]*eG*e[5mC]*eT; antisense) | 1.035 fold change | –
CO-4503 (antisense eA*eT*eT*eG*eT*eA*eG*eG*eT*eG*e[5mC]eT*eG*e[5mC]*eG*eG*eG*eT*eA*eT) | 1.202 fold change | –
CO-7108 (eA*e[5mC]*eA*eT*eT*dT*dA*dG*eA*dG*dA*d[5mC]*dA*eA*dA*dG*dA*eA*eT*e[5mC]*eG*e[5mC]; antisense) | 1.101 fold change | –
CO-4012 (antisense eG*eA*eA*e[5mC]*eT*eA*e[5mC]*eA*e[5mC]*e[5mC]*eG*eA*e[5mC]*eT*eT*eT*eA*eT*e[5mC]*eT) | 1.15 fold change | –
CO-4055 (antisense eT*eT*eG*eA*eA*e[5mC]*e[5mC]*eT*eT*eT*eA*eG*eA*eA*eA*eA*eT*e[5mC]*eG*eT) | 1.287 fold change | –
CO-4045 (antisense eA*e[5mC]*eT*eT*eT*eT*e[5mC]*eA*e[5mC]*eA*eA*e[5mC]*eT*eA*e[5mC]*eA*eG*eG*e[5mC]*e[5mC]) | 0.815 fold change | –

Substance | ABCB11 mRNA FC (5 μM ASO vs. UNT) | ABCB11 FC mRNA (5 μM ASO vs. untreated)
CO-4482 (antisense eT*eA*eA*e[5mC]*eT*eG*eG*eG*eA*eG*eT*eA*eT*eA*eG*eA*eG*eG*eA*e[5mC]) | 1.001 fold change | –
CO-7010 (antisense eT*eG*eT*eG*eG*eA*eT*eG*eT*eA*eG*eA*eT*eG*eA*eA*eT*eG*eG*e[5mC]*eA*eA*eG*eG) | 1.293 fold change | –
CO-7090 (eA*e[5mC]*e[5mC]*e[5mC]*l[5mC]*d[5mC]*d[5mC]*dT*l[5mC]*dA*d[5mC]*d[5mC]*lT*dT*dG*eG*lT*eT*e[5mC]*e[5mC]; antisense) | 1.203 fold change | –
CO-7033 (antisense eG*eA*eG*eA*e[5mC]*eA*eA*eA*eG*eA*eA*eT*e[5mC]*eG*e[5mC]*eT*eG*eT*eG*eG) | 1.316 fold change | –
CO-7066 (eT*e[5mC]*eT*eG*eG*lA*eA*eA*eA*eT*lA*eA*eT*eG*e[5mC]*l[5mC]*eT*eT*eT*e[5mC]; antisense) | 1.2 fold change | –
CO-7088 (eA*e[5mC]*e[5mC]*e[5mC]*e[5mC]*l[5mC]*d[5mC]*dT*l[5mC]*dA*d[5mC]*l[5mC]*dT*dT*lG*eG*eT*eT*e[5mC]*e[5mC]; antisense) | 1.177 fold change | –
CO-7157 (antisense eG*eT*eG*eG*eA*dG*d[5mC]*dA*dA*dA*d[5mC]*dT*dA*dG*dG*e[5mC]*eA*e[5mC]*eT*eG) | 1.195 fold change | –
CO-7002 (antisense eG*eT*eG*lA*eG*eG*e[5mC]*lA*eT*e[5mC]*eA*lG*eG*eT*eA*lA*eG*eT*eT*e[5mC]) | 1.367 fold change | –
CO-7046 (antisense eT*eG*eT*eG*eT*eT*eT*eT*eG*e[5mC]*eT*eT*eG*eG*eT*e[5mC]*eA*eA*eG*eA) | 1.243 fold change | –
CO-7030 (antisense AGAATCGCTGTGGCAGTTAA; fully 2'-MOE, mixed PS/PO, 5-methylcytosine; listed as RNA; modified_base 1..20: mod_base = OTHER; note = Phosphorothioate linkage; note = 2'-O-(2-methoxyethyl) ribonucleotide; modified_base 6: mod_base = OTHER; note = 5-methyl cytidine; modified_base 8: mod_base) | 1.372 fold change | –
CO-7025 (antisense eA*eG*eT*eG*eA*eG*e[5mC]*eT*eT*eA*eT*e[5mC]*eT*eG*eG*eA*eA*eA*eA*eT) | 1.259 fold change | –
CO-11199 (antisense eT*eG*eT*eTeTeTeG*e[5mC]*eT*eT*eG*eG*eT*e[5mC]eAeAeG*eA*eG*eG) | – | 0.97 fold change
CO-11215 (antisense eG*eT*lG*eGlA*eG*l[5mC]*eAlA*eA*l[5mC]*eTlA*eG*lG*e[5mC]lA*e[5mC]*eT*eG) | – | 2.68 fold change
CO-7068 (e[5mC]*eA*eT*eT*eT*lA*dG*dA*lG*dA*d[5mC]*lA*dA*dA*lG*eA*eA*eT*e[5mC]*eG; antisense) | 1.077 fold change | –
CO-12754 (antisense eG*eT*eGeA*eG*eGe[5mC]*eA*eTe[5mC]*eA*eGeG*eT*eAeA*eG*eTeT*e[5mC]) | – | 1.04 fold change
CO-6994 (antisense eT*eG*eG*eA*lT*eG*eT*eA*eG*lA*eT*eG*eA*eA*lT*eG*eG*e[5mC]*eA*eA) | 1.131 fold change | –
CO-6997 (antisense eG*eT*eG*eA*lG*dG*d[5mC]*dA*lT*d[5mC]*dA*dG*lG*dT*dA*eA*lG*eT*eT*e[5mC]) | 1.058 fold change | –
CO-4052 (antisense e[5mC]*e[5mC]*eA*eG*eG*eG*eT*eG*e[5mC]*eA*eA*eG*eA*eG*eT*eT*eG*eT*e[5mC]*eT) | 1.054 fold change | –
CO-7097 (eA*e[5mC]*e[5mC]*e[5mC]*l[5mC]*e[5mC]*e[5mC]*eT*e[5mC]*lA*e[5mC]*e[5mC]*eT*eT*lG*eG*eT*eT*e[5mC]*e[5mC]; antisense) | 1.028 fold change | –
CO-4505 (antisense eG*eA*eG*e[5mC]*eA*e[5mC]*eA*e[5mC]*eA*eT*eT*e[5mC]*eA*e[5mC]*eT*e[5mC]*e[5mC]*eA*eT*eT) | 1.011 fold change | –
